Some test systems named below: 786-0; PC-3; MCF7; BT-549; HT-29; EKVX; RPMI-8226; K562; TK-10; SNB-75; UO-31; T47D; SW-620; U-251; A498; SK-MEL-5; RXF 393; DU-145; UACC-62; OVCAR-4.
Assay in all cases: NCI tumour cell line growth inhibition, 48 h

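Interpolation was linear, between the two tested concentrations surrounding the appropriate level; five concentrations were tested over 48 hours in 96-well plates. GI50: concentration for 50% inhibition of growth.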 Activity calls are given as the source filed them. Cut-off read from the data, not from the text of the source: active = GI50 up to about 1.1 µM and inactive = higher.

Regarding `COc1ccc(-c2cc(-c3ccc(Nc4ccnc5cc(Cl)ccc45)cc3)nc(N)c2C#N)c2ccccc12`, the GI50 in the test with 786-0, with PC-3, in the test with MCF7, in the test on BT-549, in the test with HT-29 and in the test on EKVX was > 100 µM (inactive) in each case. For the same compound, the GI50 with RPMI-8226, in the test on K562, in the test with TK-10, in the test on SNB-75, in the test with UO-31 and in the test on T47D was > 100 µM (inactive) throughout. The GI50 in the test on SW-620, in the test on U-251, in the test on A498, in the test on SK-MEL-5, in the test on RXF 393 and in the test with DU-145 was > 100 µM (inactive) each time. For the same compound, the GI50 in the test with UACC-62 and in the test on OVCAR-4 was > 100 µM (inactive) in each case.
As to `C/C1=C\CC[C@@]2(C)O[C@@H]2C[C@@H]2[C@H](C/C(C)=C/CC1)OC(=O)C21CCN=N1` (stereo not given in full), the GI50 in the test with 786-0, in the test with PC-3, in the test on MCF7, in the test on BT-549, in the test on HT-29 and with EKVX was > 75 µM (inactive) throughout. Further, the GI50 with RPMI-8226 is 31.3 µM (inactive); with K562, 6.98 µM (inactive); in the test on TK-10, > 75 µM (inactive); in the test on SNB-75, 25.9 µM (inactive); in the test with UO-31, > 75 µM (inactive); with T47D, > 100 µM (inactive). Further, the GI50 was > 75 µM (inactive) with SW-620; > 75 µM (inactive) in the test with U-251; > 100 µM (inactive) with A498; 34.9 µM (inactive) with SK-MEL-5; > 75 µM (inactive) in the test with RXF 393; > 75 µM (inactive) with DU-145. Besides, the GI50 is > 75 µM (inactive) in the test with UACC-62 and 61.8 µM (inactive) with OVCAR-4.
Regarding `O=C1C(Br)=CC2(C=C1Br)CCNC1=C2C2=NCCc3c[nH]c(c32)C1=O`, the GI50 in the test on 786-0 is 0.124 µM (active); with PC-3, 0.307 µM (active); with MCF7, 0.0266 µM (active); with BT-549, 0.212 µM (active); in the test with HT-29, 0.0275 µM (active); with EKVX, 0.231 µM (active). The GI50 with RPMI-8226 was 0.0355 µM (active); with K562 it was 0.028 µM (active); in the test with TK-10, 0.204 µM (active); in the test with SNB-75, 0.973 µM (active); with UO-31, 0.308 µM (active); with T47D, 0.0828 µM (active). The GI50 is 0.0255 µM (active) in the test with SW-620; 0.398 µM (active) with U-251; 1.23 µM (inactive) in the test on A498; 0.126 µM (active) in the test with SK-MEL-5; 0.0681 µM (active) in the test with RXF 393; 0.811 µM (active) in the test with DU-145. Besides, the GI50 with UACC-62 was 0.0933 µM (active); in the test on OVCAR-4, 0.0794 µM (active).
`COc1cc2c(cc1C)NC(=O)/C2=C/c1c(Cl)n(C)c2ccccc12`: the GI50 was 12.7 µM (inactive) in the test on 786-0; 5.38 µM (inactive) in the test on PC-3; 3.45 µM (inactive) in the test with MCF7; 4.57 µM (inactive) in the test on BT-549; 6.08 µM (inactive) with HT-29; 6.68 µM (inactive) with EKVX. For the same compound, the GI50 in the test with RPMI-8226 was 3.13 µM (inactive); in the test on K562 it was 3.02 µM (inactive); in the test on TK-10, 12.4 µM (inactive); in the test with SNB-75 it was 3.34 µM (inactive); in the test on UO-31, 7.05 µM (inactive); in the test on T47D, 2.62 µM (inactive). Also, the GI50 with SW-620 was 3.05 µM (inactive); with U-251 it was 10 µM (inactive); with A498, 5.86 µM (inactive); with SK-MEL-5 it was 4.79 µM (inactive); in the test on RXF 393, 4.1 µM (inactive); in the test on DU-145 it was 10.3 µM (inactive). Besides, the GI50 with UACC-62 was 5.73 µM (inactive); with OVCAR-4, 6.87 µM (inactive).
In the case of `CC1OC(OC2C(O)COC(OC3C(C)OC(OC4C(OC(=O)[C@]56CCC(C)(C)C[C@@H]5C5=CCC7[C@@]8(C)C[C@H](O)[C@H](OC9OC(CO)C(O)C(O)C9O)[C@@](C)(CO)[C@@H]8CC[C@@]7(C)[C@]5(C)CC6)OCC(O)C4O)C(O)C3OC3OCC(O)(CO)C3O)C2O)C(O)C(O)C1O` (stereo not given in full), the GI50 in the test on 786-0 is 12.4 µM (inactive); with PC-3, 11.9 µM (inactive); in the test with MCF7, 25.5 µM (inactive); in the test with BT-549, 16.6 µM (inactive); with HT-29, 17.5 µM (inactive); with EKVX, 4.16 µM (inactive). The GI50 in the test on RPMI-8226 was 29.2 µM (inactive); in the test with K562, 28.5 µM (inactive); in the test on TK-10 it was 14.5 µM (inactive); in the test with SNB-75 it was 21 µM (inactive); with UO-31, 3.36 µM (inactive); in the test with T47D it was 18.8 µM (inactive). The GI50 in the test on SW-620 is 11.3 µM (inactive); in the test with U-251, 16.3 µM (inactive); with A498, 3.97 µM (inactive); in the test on SK-MEL-5, 13.3 µM (inactive); in the test with RXF 393 it was 14.7 µM (inactive); in the test on DU-145, 14.3 µM (inactive). Moreover, the GI50 in the test on UACC-62 is 13.2 µM (inactive); with OVCAR-4, 15.7 µM (inactive).
With `Oc1ccc(Cn2c(-c3ccc(O)cc3)nc3ccccc32)cc1`, the GI50 in the test with 786-0, in the test with PC-3, in the test on MCF7, with BT-549, in the test on HT-29 and with EKVX was > 100 µM (inactive) each time. The GI50 with RPMI-8226, with K562, with TK-10, in the test on SNB-75, in the test on UO-31 and in the test with T47D was > 100 µM (inactive) throughout. Besides, the GI50 in the test on SW-620, with U-251, in the test with A498, in the test on SK-MEL-5, in the test on RXF 393 and with DU-145 was > 100 µM (inactive) in each case. Moreover, the GI50 in the test with UACC-62 and with OVCAR-4 was > 100 µM (inactive) throughout.
As to `CCOC(=O)CSc1nc(-c2ccc(OC)cc2)c(C#N)c(=O)[nH]1`, the GI50 with 786-0, with PC-3, in the test with MCF7, in the test with BT-549, in the test with HT-29 and in the test on EKVX was > 100 µM (inactive) each time. Further, the GI50 with RPMI-8226 is > 100 µM (inactive); with K562 it was > 100 µM (inactive); in the test with TK-10, > 100 µM (inactive); in the test on SNB-75, > 100 µM (inactive); in the test with UO-31 it was 51.9 µM (inactive); with T47D, > 100 µM (inactive). In addition, the GI50 in the test with SW-620, with U-251, in the test on A498, with SK-MEL-5, in the test with RXF 393 and in the test with DU-145 was > 100 µM (inactive) each time. Besides, the GI50 in the test with UACC-62 and in the test with OVCAR-4 was > 100 µM (inactive) each time.

These data come from ChEMBL document CHEMBL1201862, “PubChem BioAssay data set” (2004).
